Source: US20250313548A1 (Actio Biosciences, Inc., priority 2023, published 2025)

The molecules below were run against human, KCNT1 (Homo sapiens (Human), UniProt Q5JUK3) (assay: FLIPR Tl/K Flux Assay). Details: HEK293 cells stably expressing human KCNT1; Tl+ flux stimulated with EC80 of agonist Loxapine.
Type: cell-based
Outline: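 Inhibition values come from a Hill-equation fit of % inhibition versus log concentration, using normalized fluorescence (Fmax/Fmin) over a 160 s read. The read followed stimulation with Tl+ plus EC80 agonist loxapine after 30 min compound pre-incubation at 25 °C. Cells were KCNT1-expressing HEK293, dye-loaded 1 h in pH 7.4 HEPES/HBSS with 5 mM probenecid.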

human, KCNT1, sequence (Q5JUK3 whole entry): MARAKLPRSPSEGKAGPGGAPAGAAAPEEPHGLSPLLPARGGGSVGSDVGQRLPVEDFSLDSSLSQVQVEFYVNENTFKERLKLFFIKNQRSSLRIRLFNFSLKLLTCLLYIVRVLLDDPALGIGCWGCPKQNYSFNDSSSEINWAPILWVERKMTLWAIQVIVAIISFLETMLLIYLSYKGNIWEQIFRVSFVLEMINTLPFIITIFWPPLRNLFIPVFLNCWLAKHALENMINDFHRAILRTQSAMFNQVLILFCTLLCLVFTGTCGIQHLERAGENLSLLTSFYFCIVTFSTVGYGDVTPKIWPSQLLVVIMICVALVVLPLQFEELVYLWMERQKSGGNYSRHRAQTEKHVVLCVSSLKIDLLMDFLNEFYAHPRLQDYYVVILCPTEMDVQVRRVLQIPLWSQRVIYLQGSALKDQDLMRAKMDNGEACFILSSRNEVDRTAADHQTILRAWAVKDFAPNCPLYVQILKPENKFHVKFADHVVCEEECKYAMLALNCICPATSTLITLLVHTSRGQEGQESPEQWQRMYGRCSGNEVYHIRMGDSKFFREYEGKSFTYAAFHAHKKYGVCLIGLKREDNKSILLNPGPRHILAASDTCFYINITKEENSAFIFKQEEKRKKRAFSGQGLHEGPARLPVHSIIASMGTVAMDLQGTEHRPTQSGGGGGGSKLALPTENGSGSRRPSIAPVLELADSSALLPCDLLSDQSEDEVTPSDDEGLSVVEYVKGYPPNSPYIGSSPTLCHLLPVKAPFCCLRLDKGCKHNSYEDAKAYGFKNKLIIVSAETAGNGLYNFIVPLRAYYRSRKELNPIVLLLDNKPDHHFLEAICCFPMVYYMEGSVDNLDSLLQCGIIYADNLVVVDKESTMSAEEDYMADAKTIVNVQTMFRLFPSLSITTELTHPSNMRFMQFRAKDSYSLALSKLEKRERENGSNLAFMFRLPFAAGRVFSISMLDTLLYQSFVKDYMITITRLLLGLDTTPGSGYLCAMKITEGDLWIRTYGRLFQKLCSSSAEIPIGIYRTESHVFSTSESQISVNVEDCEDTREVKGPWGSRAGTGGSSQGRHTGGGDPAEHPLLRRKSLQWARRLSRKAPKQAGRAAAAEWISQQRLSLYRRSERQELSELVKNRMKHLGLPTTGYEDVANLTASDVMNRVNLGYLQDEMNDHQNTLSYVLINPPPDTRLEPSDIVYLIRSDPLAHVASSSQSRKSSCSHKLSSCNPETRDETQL

SMILES	IC50 [nM]
O=C(N[C@H]1CCc2cnc(-c3ccnc(C(F)(F)F)c3)cc21)c1cc2cccnn2c1 [Compound I-340a]	> 1000
COc1cc(C(=O)NC2CCCc3nn(-c4ccnc(C(F)(F)F)c4)cc32)n(C)n1 (racemic) [Compound I-21, (rac)-3-Methoxy-1-methyl-N-(2-(2-(trifluoromethyl)pyridin-4-yl)-4,5,6,7-tetrahydro-2H-indazol-4-yl)-1H-pyrazole-5-carboxamide]	> 1000
Cn1nc(C(=O)N[C@H]2CCCc3nn(-c4ccnc(C(F)(F)F)c4)cc32)cc1C(C)(F)F [Compound I-49a]	> 1000
Cc1cc(Cl)ccc1C(=O)N[C@@H]1CCc2nn(-c3ccnc(C(F)(F)F)c3)cc21 [Compound I-95b]	> 1000
Cn1nc(C(F)(F)F)cc1C(=O)N[C@@H]1CCCCc2nn(-c3ccnc(C(F)(F)F)c3)cc21 [Compound I-45b, (R)-1-methyl-3-(trifluoromethyl)-N-(2-(2-(trifluoromethyl)pyridin-4-yl)-2,4,5,6,7,8-hexahydrocyclohepta[c]pyrazol-4-yl)-1H-pyrazole-5-carboxamide]	> 1000
CCOc1cc(-n2cc3c(n2)CCCC3NC(=O)c2ccc3ccccc3c2)ccn1 (racemic) [Compound I-30, (rac)-N-(2-(2-Ethoxypyridin-4-yl)-4,5,6,7-tetrahydro-2H-indazol-4-yl)-2-naphthamide]	500 to 1000
COCc1cc(C(=O)NC2CCCc3nn(-c4ccnc(C(F)(F)F)c4)cc32)n(C)n1 (racemic) [Compound I-23, (rac)-3-(Methoxymethyl)-1-methyl-N-(2-(2-(trifluoromethyl)pyridin-4-yl)-4,5,6,7-tetrahydro-2H-indazol-4-yl)-1H-pyrazole-5-carboxamide]	> 1000
Cc1cnc(C(F)(F)F)cc1-c1cc2n(n1)CC[C@H]2NC(=O)c1cc(C(F)(F)F)nn1C [Compound I-472b]	> 1000
Cn1ncnc1C(=O)N[C@H]1CCCc2oc(-c3ccnc(C4CC4)c3)nc21 [Compound I-228a, (S)-N-(2-(2-Cyclopropylpyridin-4-yl)-4,5,6,7-tetrahydrobenzo[d]oxazol-4-yl)-1-methyl-1H-1,2,4-triazole-5-carboxamide]	> 1000
O=C(N[C@H]1CCCc2nc(-c3ccnc(C4CC4)c3)oc21)c1cc(Cl)cc(Cl)c1 [Compound I-153a, (S)-3,5-Dichloro-N-(2-(2-cyclopropylpyridin-4-yl)-4,5,6,7-tetrahydrobenzo[d]oxazol-7-yl)benzamide]	< 250
O=C(N[C@H]1CCCc2oc(-c3ccnc(C4CC4)c3)nc21)c1cccc(C(F)(F)F)c1 [Compound I-238a, (S)-N-(2-(2-Cyclopropylpyridin-4-yl)-4,5,6,7-tetrahydrobenzo[d]oxazol-4-yl)-3-(trifluoromethyl)benzamide]	< 250
Cn1nc(C(F)(F)F)cc1C(=O)NC1CCCCc2nn(-c3ccnc(C(F)(F)F)c3)cc21 (racemic) [Compound I-45, (rac)-1-Methyl-3-(trifluoromethyl)-N-(2-(2-(trifluoromethyl)pyridin-4-yl)-2,4,5,6,7,8-hexahydrocyclohepta[c]pyrazol-4-yl)-1H-pyrazole-5-carboxamide]	< 250
CC(C)Oc1cc(C(=O)N[C@H]2CCCn3nc(-c4ccnc(C(F)(F)F)c4)cc32)n(C)n1 [Compound I-367a]	< 250
COc1cc(-c2cc3n(n2)CC[C@@H]3NC(=O)c2cc(C(F)(F)F)nn2C)ccn1 [Compound I-427a]	< 250
COc1cc(C2=NC3C(NC(=O)c4cccc(C#N)c4)CCCCC3N2)ccn1 (stereo not shown) [Compound I-464]	> 1000
Cn1nc(C2CCC2)cc1C(=O)N[C@H]1CCCn2nc(-c3ccnc(C(F)(F)F)c3)cc21 [Compound I-362a]	< 250
N#Cc1cccc(C(=O)N[C@H]2CCCCn3cc(-c4ccnc(C(F)(F)F)c4)cc32)c1 [Compound I-263a, (S)-3-Cyano-N-(2-(2-(trifluoromethyl)pyridin-4-yl)-6,7,8,9-tetrahydro-5H-pyrrolo[1,2-a]azepin-9-yl)benzamide]	< 250
N#Cc1cc(C(=O)N[C@H]2CCCn3nc(-c4ccnc(C(F)(F)F)c4)cc32)ccn1 [Compound I-328a, (S)-2-Cyano-N-(2-(2-(trifluoromethyl)pyridin-4-yl)-4,5,6,7-tetrahydropyrazolo[1,5-a]pyridin-4-yl)isonicotinamide]	< 250
O=C(N[C@H]1CCCn2nc(-c3ccnc(C(F)(F)F)c3)cc21)c1cc2cccnn2c1 [Compound I-442a]	< 250
Cn1nc(C(F)(F)F)cc1C(=O)N[C@H]1CCCn2nc(-c3ccnc(C4CCC4)c3)cc21 [Compound I-377a]	< 250
O=C(N[C@H]1CCCn2nc(-c3ccnc(C(F)(F)F)c3)cc21)c1nc2ccccn2n1 [Compound I-422a]	> 1000
O=C(N[C@H]1CCn2nc(-c3ccnc(C(F)(F)F)c3)cc21)c1cc2cccnn2c1 [Compound I-291a, (S)-N-(2-(2-(Trifluoromethyl)pyridin-4-yl)-5,6-dihydro-4H-pyrrolo[1,2-b]pyrazol-4-yl)pyrrolo[1,2-b]pyridazine-6-carboxamide]	< 250
Cn1nc(C(F)(F)F)cc1C(=O)N[C@H]1CCCc2nc(-c3ccnc(C(F)(F)F)c3)sc21 [Compound I-82a]	< 250
N#Cc1cccc(C(=O)N[C@H]2CCn3nc(-c4ccnc(C5CC5)c4)cc32)c1 [Compound I-310a, (S)-3-Cyano-N-(2-(2-cyclopropylpyridin-4-yl)-5,6-dihydro-4H-pyrrolo[1,2-b]pyrazol-4-yl)benzamide]	< 250
O=C(N[C@@H]1CCCc2nc(-c3cc(C4CC4)ncc3F)oc21)c1cncc(C(F)(F)F)n1 [Compound I-511b]	> 1000
CC1(C)C[C@H](NC(=O)c2cccc(C#N)c2)c2cc(-c3ccnc(C(F)(F)F)c3)nn2C1 [Compound I-220a, (S)-3-Cyano-N-(6,6-dimethyl-2-(2-(trifluoromethyl)pyridin-4-yl)-4,5,6,7-tetrahydropyrazolo[1,5-a]pyridin-4-yl)benzamide]	250 to 500
CC(F)(F)c1cc(-c2nc3c(o2)CCC[C@@H]3NC(=O)c2cncc(F)c2)ccn1 [Compound I-544a, (S)—N-(2-(2-(1,1-difluoroethyl)pyridin-4-yl)-4,5,6,7-tetrahydrobenzo[d]oxazol-4-yl)-5-fluoronicotinamide]	< 250

Results, then the molecule that gave them:

IC50 [nM]	SMILES
< 250	O=C(N[C@H]1CCn2nc(-c3ccnc(C(F)(F)F)c3)cc21)c1cnc(C(F)(F)F)cn1 [Compound I-571a, (S)-5-(Trifluoromethyl)-N-(2-(2-(trifluoromethyl)pyridin-4-yl)-5,6-dihydro-4H-pyrrolo[1,2-b]pyrazol-4-yl)pyrazine-2-carboxamide]
< 250	Cn1nc(C(F)(F)F)cc1C(=O)N[C@H]1CCCn2nc(-c3ccnc(C4(C)CC4)c3)cc21 [Compound I-459a]
< 250	CC(C)c1cc(-n2cc3c(n2)CC[C@@H]3NC(=O)c2cc(C(F)(F)F)nn2C)ccn1 [Compound I-70a]
< 250	O=C(N[C@H]1CCn2nc(-c3ccnc(C(F)(F)F)c3)cc21)[C@@H]1C[C@H]1C(F)(F)F [I-488^, (1R,2R)-2-(trifluoromethyl)-N—((S)-2-(2-(trifluoromethyl)pyridin-4-yl)-5,6-dihydro-4H-pyrrolo[1,2-b]pyrazol-4-yl)cyclopropane-1-carboxamide]
< 250	COc1cc(-c2cc3n(n2)CCC[C@@H]3NC(=O)c2cncc(C(F)(F)F)c2)ccn1 [Compound I-357a]
< 250	Cn1nc(C(F)(F)F)cc1C(=O)N[C@H]1CCCc2nc(-c3cc(C(F)(F)F)ncc3F)oc21 [Compound I-514a, (S)—N-(2-(5-Fluoro-2-(trifluoromethyl)pyridin-4-yl)-4,5,6,7-tetrahydrobenzo[d]oxazol-7-yl)-1-methyl-3-(trifluoromethyl)-1H-pyrazole-5-carboxamide]
< 250	Cn1nc(C(F)(F)F)cc1C(=O)N[C@H]1CCc2nn(-c3ccnc(C4(C)CC4)c3)cc21 [Compound I-75a, (S)-1-Methyl-N-(2-(2-(1-methylcyclopropyl)pyridin-4-yl)-2,4,5,6-tetrahydrocyclopenta[c]pyrazol-4-yl)-3-(trifluoromethyl)-1H-pyrazole-5-carboxamide]
< 250	COc1cncc(C(=O)N[C@H]2CCn3nc(-c4ccnc(C(F)(F)F)c4)cc32)n1 [Compound I-207a, (S)-6-Methoxy-N-(2-(2-(trifluoromethyl)pyridin-4-yl)-5,6-dihydro-4H-pyrrolo[1,2-b]pyrazol-4-yl)pyrazine-2-carboxamide]
< 250	CCOc1cc(-n2cc3c(n2)CCCC3NC(=O)c2cc(Cl)cc(C(F)(F)F)c2)ccn1 (racemic) [Compound I-14, (rac)-3-Chloro-N-(2-(2-ethoxypyridin-4-yl)-4,5,6,7-tetrahydro-2H-indazol-4-yl)-5-(trifluoromethyl)benzamide]
< 250	Cc1cc(C#N)cc(C(=O)N[C@H]2CCn3nc(-c4ccnc(C(F)(F)F)c4)cc32)c1 [Compound I-334a, (S)-3-Cyano-5-methyl-N-(2-(2-(trifluoromethyl)pyridin-4-yl)-5,6-dihydro-4H-pyrrolo[1,2-b]pyrazol-4-yl)benzamide]
< 250	O=C(N[C@H]1CCCc2oc(-c3ccnc(C4CC4)c3)nc21)c1cnn(C(F)(F)F)c1C(F)(F)F [Compound I-530a, (S)—N-(2-(2-cyclopropylpyridin-4-yl)-4,5,6,7-tetrahydrobenzo[d]oxazol-4-yl)-1,5-bis(trifluoromethyl)-1H-pyrazole-4-carboxamide]
< 250	O=C(N[C@H]1CCCCc2nn(-c3ccnc(C4CC4)c3)cc21)c1cc(Cl)cc(C(F)(F)F)c1 [Compound I-110a]
< 250	Cn1nc(C(F)(F)F)cc1C(=O)N[C@H]1CCCc2nn(-c3ccnc(C(F)(F)F)c3)cc21 [Compound I-4a, (S)-1-Methyl-3-(trifluoromethyl)-N-(2-(2-(trifluoromethyl)pyridin-4-yl)-4,5,6,7-tetrahydro-2H-indazol-4-yl)-1H-pyrazole-5-carboxamide]
